Data set [1] relates to SARS-CoV-2 B.1.1.7 lineage. The experiment in a line: microbe, parasite or virus in culture. It is filed as cell-based. The settings on record: Severe acute respiratory syndrome coronavirus 2, Table C, SARS-CoV-2 B.1.1.7 in A549-dual_ACE2_TMPRSS2 cells, read-out: A549-dual_ACE2_TMPRSS2 (EC50).
The target in a further data set is SARS-Cov-2 3CLpro (Severe acute respiratory syndrome coronavirus 2, UniProt P0DTD1). The experiment in a line: biochemical. The settings on record: Table A, class symbols, read-out: SARS-Cov-2 (IC50).
Data set [2] deals with human beta-coronavirus OC43. The experiment in a line: OC43 Coronavirus Assay in HeLa cells (antiviral, cytopathic effect, cell-titer-glo). The settings on record: Betacoronavirus 1, OC43, HeLa. It is filed as cell-based.
The next data set in a line: in vitro. The settings on record: human.
Data set [3] is described as follows: Cytotoxicity in HeLa cells without addition of OC43 virus (in parallel). The settings on record: human, HeLa cells, without OC43 virus.
[4] abbreviates: Table B, OC43 coronavirus in HeLa cells, class symbols, read-out: EC50.

Read-outs that look alike come from different tables or passages of the source.

Turning to `CN(C(=O)[C@H](CC1CC1)n1cc(C2CC2)nn1)[C@@H](CC1CC1)C(=O)N1C[C@@]2(C[C@H]1C#N)Oc1cc(F)cc(F)c1NC2=O` [Compound 108, (S)—N—((S)-1-((2R,5'S)-5′-cyano-5,7-difluoro-3-oxo-3,4-dihydrospiro[benzo[b][1,4]oxazine-2,3′-pyrrolidin]-1′-yl)-3-cyclopropyl-1-oxopropan-2-yl)-3-cyclopropyl-2-(4-cyclopropyl-1H-1,2,3-triazol-1-yl)-N-methylpropanamide], the EC50 was below 100 nM in data set [1] (class symbols) and 100 to 1000 nM in data set [2] (setting [4]). Besides, at SARS-Cov-2 3CLpro, the IC50 is below 20 nM. This compound also displayed a CC50 in “in vitro” above 1000 nM. The compound also showed a CC50 at 6 days in data set [3] above 10000 nM.
For `CN(C(=O)[C@@H]1CC[C@@H](c2ccccc2)N1)[C@@H](CC1CC1)C(=O)N1C[C@@]2(C[C@H]1C#N)Oc1cc(F)cc(F)c1NC2=O` [Compound 111, (2S,5S)—N—((S)-1-((2R,5'S)-5′-cyano-5,7-difluoro-3-oxo-3,4-dihydrospiro[benzo[b][1,4]oxazine-2,3′-pyrrolidin]-1′-yl)-3-cyclopropyl-1-oxopropan-2-yl)-N-methyl-5-phenylpyrrolidine-2-carboxamide], the EC50 in data set [1] (class symbols) and in data set [2] (setting [4]) was 100 to 1000 nM each time. At SARS-Cov-2 3CLpro, the IC50 was below 20 nM. For the same compound, the CC50 in the data set “in vitro” was above 1000 nM. This compound also displayed a CC50 at 6 days in data set [3] above 10000 nM.
`CN(C)C(=O)c1ccc2c(c1)O[C@@]1(C[C@@H](C#N)N(C(=O)[C@H](CC3CC3)N(C)C(=O)[C@H](CC3CC3)NC(=O)C(F)(F)F)C1)C(=O)N2` [Compound 112, (2R,5'S)-5′-cyano-1′-((S)-3-cyclopropyl-2-((S)-3-cyclopropyl-N-methyl-2-(2,2,2-trifluoroacetamido)propanamido)propanoyl)-N,N-dimethyl-3-oxo-3,4-dihydrospiro[benzo[b][1,4]oxazine-2,3′-pyrrolidine]-7-carboxamide]: the 50% effective concentration (EC50) in data set [1] (class symbols) is 100 to 1000 nM; in data set [2] (setting [4]), below 100 nM. Further, the IC50 at SARS-Cov-2 3CLpro is below 20 nM. This compound returned a CC50 in the data set “in vitro” above 1000 nM. The same compound returned a CC50 at 6 days in data set [3] above 10000 nM.
For the compound `CN(C(=O)[C@H](CC1CC1)NC(=O)C(F)(F)F)[C@@H](CC1CC1)C(=O)N1C[C@@]2(C[C@H]1C#N)Oc1ccccc1C1(CC1)NC2=O` [Compound 113], the figures for the EC50 in data set [1] (cells given as a bound) and in data set [2] (setting [4]) were above 1000 nM and 100 to 1000 nM, respectively. The IC50 on SARS-Cov-2 3CLpro lay within 20 to 200 nM. The compound further displayed a CC50 in “in vitro” above 1000 nM. In data set [3], the CC50 at 6 days was above 10000 nM.
For `CN(C(=O)[C@H](CC1CC1)n1cc(-c2ccccc2)nn1)[C@@H](CC1CC1)C(=O)N1C[C@@]2(C[C@H]1C#N)Oc1cc(F)cc(F)c1NC2=O` [Compound 114, (S)—N—((S)-1-((2R,5'S)-5′-cyano-5,7-difluoro-3-oxo-3,4-dihydrospiro[benzo[b][1,4]oxazine-2,3′-pyrrolidin]-1′-yl)-3-cyclopropyl-1-oxopropan-2-yl)-3-cyclopropyl-N-methyl-2-(4-phenyl-1H-1,2,3-triazol-1-yl)propenamide], the EC50 in data set [1] (class symbols) and in data set [2] (setting [4]) was 100 to 1000 nM each time. In addition, the IC50 on SARS-Cov-2 3CLpro is below 20 nM. The same compound displayed a CC50 in the data set “in vitro” above 1000 nM. In addition, the CC50 at 6 days in data set [3] is above 10000 nM.
As for `C[C@H](NC(=O)C(F)(F)F)C(=O)N(C)[C@@H](COC(C)(C)C)C(=O)N1C[C@@]2(C[C@H]1C#N)Oc1cc(F)cc(F)c1NC2=O` [Compound 115, (S)—N—((S)-3-(t-butoxy)-1-((2R,5'S)-5′-cyano-5,7-difluoro-3-oxo-3,4-dihydrospiro[benzo[b][1,4]oxazine-2,3′-pyrrolidin]-1′-yl)-1-oxopropan-2-yl)-N-methyl-2-(2,2,2-trifluoroacetamido)propenamide], the EC50 in data set [1] (class symbols) and in data set [2] (setting [4]) was 100 to 1000 nM throughout. Further, the IC50 on SARS-Cov-2 3CLpro is below 20 nM. This compound returned a CC50 in “in vitro” above 1000 nM. In addition, the CC50 at 6 days in data set [3] was above 10000 nM.
With `CC(C)N1CC2(CC2)C[C@H]1C(=O)N(C)[C@@H](CC1CC1)C(=O)N1C[C@@]2(C[C@H]1C#N)Oc1cc(F)cc(F)c1NC2=O` [Compound 116], the EC50 in data set [1] (class symbols) and in data set [2] (setting [4]) was 100 to 1000 nM throughout. For the same compound, the concentration for half-maximal inhibition (IC50) at SARS-Cov-2 3CLpro is below 20 nM. The CC50 in the data set “in vitro” is above 1000 nM. The same compound yielded a CC50 at 6 days in data set [3] above 10000 nM.
`CC(C)OC(=O)N[C@@H](C)C(=O)N(C)[C@@H](CC1CC1)C(=O)N1C[C@@]2(C[C@H]1C#N)Oc1cc(F)cc(F)c1NC2=O` [Compound 120, isopropyl ((S)-1-(((S)-1-((2R,5'S)-5′-cyano-5,7-difluoro-3-oxo-3,4-dihydrospiro[benzo[b][1,4]oxazine-2,3′-pyrrolidin]-1′-yl)-3-cyclopropyl-1-oxopropan-2-yl)(methyl)amino)-1-oxopropan-2-yl)carbamate]: the EC50 in data set [1] (class symbols) and in data set [2] (setting [4]) was 100 to 1000 nM in each case. Moreover, the IC50 on SARS-Cov-2 3CLpro was below 20 nM. The same compound displayed a CC50 in the data set “in vitro” above 1000 nM. Besides, in data set [3], the CC50 at 6 days was above 10000 nM.
With `CN(C(=O)[C@H](CC1CC1)NC(=O)C(F)(F)F)[C@@H](CC1CC1)C(=O)N1C[C@@]2(C[C@H]1C#N)Oc1cccnc1CNC2=O` [Compound 121, (S)—N—((S)-1-((2R,5'S)-5′-cyano-3-oxo-4,5-dihydro-3H-spiro[pyrido[2,3-f][1,4]oxazepine-2,3′-pyrrolidin]-1′-yl)-3-cyclopropyl-1-oxopropan-2-yl)-3-cyclopropyl-N-methyl-2-(2,2,2-trifluoroacetamido)propanamide], the EC50 is 100 to 1000 nM in data set [1] (class symbols) and below 100 nM in data set [2] (setting [4]). In addition, the IC50 at SARS-Cov-2 3CLpro is below 20 nM. The same compound yielded a CC50 in “in vitro” above 1000 nM. For the same compound, in data set [3], the CC50 at 6 days was above 10000 nM.
For the compound `CN(C(=O)[C@H](CC1CC1)NC(=O)C(F)(F)F)[C@@H](CC1CC1)C(=O)N1C[C@@]2(CC1C#N)Oc1c(C#N)cccc1NC2=O` (stereo partly drawn) [Compound 124], the results for the EC50 in data set [1] (class symbols) and in data set [2] (setting [4]) were 100 to 1000 nM and below 100 nM, respectively. For the same compound, the IC50 on SARS-Cov-2 3CLpro was below 20 nM. Besides, in the data set “in vitro”, the CC50 was above 1000 nM. For the same compound, in data set [3], the CC50 at 6 days was above 10000 nM.
For the compound `CN(C(=O)[C@H](CC1CC1)NC(=O)C(F)(F)F)[C@@H](CC1CC1)C(=O)N1C[C@@]2(C[C@H]1C#N)Oc1c(cccc1-c1ccccc1)NC2=O` [Compound 125, (S)—N—((S)-1-((2R,5'S)-5′-cyano-3-oxo-8-phenyl-3,4-dihydrospiro[benzo[b][1,4]oxazine-2,3′-pyrrolidin]-1′-yl)-3-cyclopropyl-1-oxopropan-2-yl)-3-cyclopropyl-N-methyl-2-(2,2,2-trifluoroacetamido)propanamide], the EC50 in data set [1] (class symbols) and in data set [2] (setting [4]) was below 100 nM in each case. Also, the IC50 at SARS-Cov-2 3CLpro was below 20 nM. Moreover, in “in vitro”, the CC50 is above 1000 nM. Further, in data set [3], the CC50 at 6 days is above 10000 nM.
As for `Cc1cnc2c(c1)NC(=O)[C@]1(C[C@@H](C#N)N(C(=O)[C@H](CC3CC3)N(C)C(=O)[C@H](CC3CC3)NC(=O)C(F)(F)F)C1)O2` [Compound 126, (S)—N—((S)-1-((3R,5'S)-5′-cyano-7-methyl-2-oxo-1,2-dihydrospiro[pyrido[2,3-b][1,4]oxazine-3,3′-pyrrolidin]-1′-yl)-3-cyclopropyl-1-oxopropan-2-yl)-3-cyclopropyl-N-methyl-2-(2,2,2-trifluoroacetamido)propanamide], the EC50 in data set [1] (class symbols) was 100 to 1000 nM; in data set [2] (setting [4]), below 100 nM. Further, the IC50 on SARS-Cov-2 3CLpro is below 20 nM. For the same compound, the CC50 in the data set “in vitro” was above 1000 nM. For the same compound, in data set [3], the CC50 at 6 days is above 10000 nM.
Turning to `CN(C(=O)[C@@H]1CCN(C(=O)C(F)(F)F)C1)[C@@H](CC1CC1)C(=O)N1C[C@@]2(C[C@H]1C#N)Oc1cc(F)cc(F)c1NC2=O` [Compound 128], the EC50 in data set [1] (class symbols) was 100 to 1000 nM; in data set [2], above 10000 nM. The IC50 at SARS-Cov-2 3CLpro is 200 to 2000 nM. In “in vitro”, this compound displayed a CC50 above 1000 nM. This compound registered a CC50 at 6 days in data set [3] above 10000 nM.
Turning to `CN(C(=O)[C@H]1CCN(C(=O)C(F)(F)F)C1)[C@@H](CC1CC1)C(=O)N1C[C@@]2(C[C@H]1C#N)Oc1cc(F)cc(F)c1NC2=O` [Compound 129], the EC50 is 100 to 1000 nM in data set [1] (class symbols) and above 10000 nM in data set [2]. In addition, the IC50 at SARS-Cov-2 3CLpro lay within 200 to 2000 nM. In the data set “in vitro”, the CC50 is above 1000 nM. The compound also returned a CC50 at 6 days in data set [3] above 10000 nM.
Turning to `Cc1c(-c2ccccc2)nn2c1NC(=O)[C@]21C[C@@H](C#N)N(C(=O)[C@H](CC(C)C)N(C)C(=O)[C@H](C)NC(=O)C(F)(F)F)C1` [Compound 130], the concentration for a half-maximal effect (EC50) in data set [1] (class symbols) and in data set [2] (setting [4]) was 100 to 1000 nM each time. The IC50 on SARS-Cov-2 3CLpro fell in the range of 20 to 200 nM. The compound also displayed a CC50 in “in vitro” above 1000 nM. In data set [3], the CC50 at 6 days is above 10000 nM.
Regarding `CN1CCC[C@H]1C(=O)N(C)[C@@H](CC1CC1)C(=O)N1C[C@@]2(C[C@H]1C#N)Oc1cc(F)cc(F)c1NC2=O` [Compound 131], the EC50 in data set [1] (cells given as a bound) is above 1000 nM; in data set [2] (setting [4]), 1000 to 10000 nM. Further, at SARS-Cov-2 3CLpro, the IC50 was in the range of 20 to 200 nM. For the same compound, in “in vitro”, the CC50 was above 1000 nM. In data set [3], the CC50 at 6 days is above 10000 nM.
Turning to `CN(C(=O)CCN1CCOCC1)[C@@H](CC1CC1)C(=O)N1C[C@@]2(C[C@H]1C#N)Oc1cc(F)cc(F)c1NC2=O` [Compound 132], the EC50 in data set [1] (class symbols) fell in the range of 100 to 1000 nM; in data set [2] (setting [4]), 1000 to 10000 nM. In addition, the IC50 on SARS-Cov-2 3CLpro lay in the range of 20 to 200 nM. In “in vitro”, this compound yielded a CC50 above 1000 nM. In data set [3], this compound came in with a CC50 at 6 days above 10000 nM.
As to `CN(C(=O)c1cc2cccc(Cl)c2[nH]1)[C@@H](CC1CC1)C(=O)N1C[C@@]2(C[C@H]1C#N)Oc1cc(F)cc(F)c1NC2=O` [Compound 133], the EC50 in data set [1] (class symbols) and in data set [2] (setting [4]) was 100 to 1000 nM throughout. At SARS-Cov-2 3CLpro, the IC50 is below 20 nM. For the same compound, the CC50 in “in vitro” was above 1000 nM. Also, the CC50 at 6 days in data set [3] is above 10000 nM.

By EC50 is commonly meant the concentration giving half of the maximal effect. What is called IC50 is the concentration at which inhibition is half-maximal.

These data come from US20240199647A1, “ANTI-VIRAL COMPOUNDS” (Aligos Therapeutics, Inc., priority 2022, published 2024).
